The conditions of test [1]: diabetes induced (Wolffenbuttel 1998); cited from earlier work.
Test [2] is described as follows: Free radical scavenging activity on ABTS radical cation. The test is classed as biochemical. The procedure:
This method measures the relative ability of free radical scavenging substances to scavenge the ABTS.^+ i.e. 2,2-Azino-bis-(3-ethyl benzo thiazoline-6-sulfonate) radical cation as compared to a standard amount of standard or free radical scavengers antioxidants. Incubation of ABTS with Peroxidase (metmyoglobin) and hydrogen peroxide results in the production of radical cation ABTS.^+. This species is blue-green in colour and can be detected at 730 nm. Antioxidants or free radical scavengers in the added sample that causes suppression of the color to a degree that is proportional to their concentration.
Preparation of Buffer Solutions: • a. Phosphate Citrate Buffer (pH 5.0): 48.5 ml of 0.1M citric acid with sufficient 0.2M disodium hydrogen phosphate to produce 100 ml. • b. Phosphate Buffer Saline (PBS): Dissolve 40.0 g of NaCl, 1.0 g of KCl, 1.0 g of KH2PO4 and 3.05 g of Na2HPO4 in 1 liter milli-Q water. Dilute 200 ml of above solution to 1 liter with milli-Q water (pH 7.4–7.6).
Preparation of ABTS Stock Solution (2 mM): • 1 tablet (10 mg) was dissolved in phosphate citrate buffer (pH 5.0) to give a 2 mM solution.
Preparation of Horse Radish Peroxidase Working Solution: • 0.1 mg was dissolved in 10 ml of phosphate buffer saline, 1 ml of this solution was diluted to 100 ml with PBS.
Preparation of Hydrogen Peroxide (1.08 mM) Solution: • 12 μl of Hydrogen Peroxide (30% w/v) was diluted to 100 ml with PBS.
Preparation of Drug Solutions: • 0.1 mM of stock solution of the drug was prepared which was serially diluted in PBS to get 0.05 mM, 0.025 mM and 0.0125 mM solutions.
Preparation of ABTS Radical Stock Solution: • To 2 ml of ABTS stock solution, 1 ml of horseradish Peroxidase working solution was added. • As soon as 2 ml of Hydrogen peroxide solution was added to the above solution, blue-green colour of the ABTS radicals appeared. This solution was incubated at 30° C. for 30 min in order to ensure the completion reaction. Make up the volume to 10 ml with PBS.
Preparation of Control Solution: • 900 μl of ABTS radical stock solution were added to an eppendorf tube. To it were added 100 μl of PBS solution.
Preparation of Test Solution: • 900 μl of ABTS radical stock solutions were added to different eppendorf tubes. To it were added 100 μl of various concentrations of drug solution.
Measurement of Absorbance (O.D): • The absorbance of control and test samples was recorded immediately at 730 nm taking PBS as blank.
Calculation: • The percent antioxidant activity was calculated according to the formula: % Antioxidant activity=100−[O.D of test sample/O.D of control×100]

A further test concerns the target T1, AGE-BSA (Bos taurus, UniProt P02769).
T1 construct: Bovine serum albumin (fraction V) (BSA); from tissue; host or cells: bovine serum (fraction V); own knowledge: fraction V is the albumin fraction of plasma/serum
Briefly: In-vitro screening for AGE-breaking activity (AGE-BSA incubated with compound; ELISA / gel permeation chromatography). The test is classed as biochemical, bovine. Particulars: 37° C., 24 hours. On the procedure: Fluorescence was used as the criteria to monitor the increased AGE formation.
160 mg/ml of protein, bovine serum albumin, BSA and 1.6M glucose sugar were dissolved in phosphate buffered saline, PBS. Sodium azide was added at 0.02% concentration as a preservative. The solution was filtered asceptically through a […] filter and kept for aging at 37° C. for 16 weeks. After 16 weeks the solution was dialyzed against PBS, aliquoted and stored at −20° C.
To determine the AGE breaking activity, 10 μg/ml of the 16 weeks AGE-BSA was incubated with different concentrations of the test compounds at 37° C. for 24 hours and AGE breaking activity of the test compounds by ELISA was determined.
• 1. Different concentrations of 16 weeks AGE-BSA were coated on a microtiter plate as standard. Each concentration is coated in triplicates. • 2. The test samples were coated on microtiter plate at a concentration of 5 ng. to 20 ng per well in triplicates. • 3. The plate was incubated at 37° C. for one hour. • 4. After incubation the plate was washed with PBST (PBS with 0.05% Tween 20). • 5. Blocking with 5% skimmed milk in PBS at 37° C. for one hour was done. • 6. The plate was washed with PBST. • 7. Primary antibody against AGE-BSA was added and the plate is incubated at 37° C. for one hour. • 8. The plate was washed with PBST. • 9. Secondary antibody anti rabbit HRPO (Horse-Radish Per Oxidase) conjugate was added and the plate is incubated at 37° C. for one hour. • 10. The plate was washed with PBST. • 11. Colour development with OPD (orthophenylenediamine dihydrochloride) and hydrogen peroxide was done. • 12. OD (optical density) at (450 nm reading –620 nm reading) was measured after incubation at 37° C. for 15 minutes with Microplate ELISA Reader.
The breaker activity of the compounds were determined by the following formula:
[formula] OD450-620Control=Absorbance of 20 ng AGE-BSA after incubation at 37° C. for 24 hours without test compound. OD450-620Test=Absorbance of 20 ng AGE-BSA after incubation at 37° C. for 24 hours with required concentration of test compound.
Gel Permeation Chromatography based method was used to determine AGE breaking activities of the compounds.
Separation by Gel Permeation Chromatography (GPC) depends on differences in the size, more precisely the hydrodynamic volume, of the proteins in a sample. […] The pores of a column particle are differentially accessible to smaller particles, depending on their size. This volume of the column is called (V1). The total accessible volume (Vt) is the sum of the volume outside the particles (V0) and the volume accessible inside the particles (V1): Vt=V0+Vi Therefore, in a typical Gel Permeation Chromatography (GPC) run, high molecular weight molecules elute at a lower retention time whereas lower molecular weight molecules are retained for longer time. For the purpose of quantification, the area under the curve for the respective molecule is recorded. The same principle has been applied in the in vitro screening of the molecules of instant invention. Highly cross-linked Advanced Glycosylated Endproducts (AGE) were prepared in vitro by incubating Bovine Serum Albumin (BSA) with glucose for a period of 16 weeks. […] The reduction in the area of AGE-BSA incubated in the presence of AGE breaker as compared to that of control AGE BSA (incubated in absence of AGE breaker) gives an estimate of the AGE breaker activity of the drug. In order to check the non-specific activity of the molecule, a similar experiment was repeated with BSA as well. Methodology:
A known concentration of 16-week AGE-BSA was incubated with and without a predetermined concentration of the drug at 37° C. for 24 hours in clean transparent glass test tubes. The solution without drug served as the control and the solution containing the drug was treated as the test sample.
Gel permeation chromatography was performed on equal volumes of control AGE-BSA preparation and solution of AGE-BSA treated with drug. […]

The test system of test [3] is Maillard reaction in-vitro (BSA, ribose). Briefly: Test for AGE inhibiting activity (Maillard reaction in-vitro, BSA + ribose, fluorescence). The class given is biochemical, bovine. Particulars: 37° C., 7 days. On the procedure:
The following method was used to determine the inhibitory effect of the test compounds on Maillard reaction in-vitro. This method is adopted from U.S. Pat. No. 5,514,676 and European Patent No. 0 339 496 A2.
A solution of Bovine Serum Albumin (BSA), ribose and test compound was prepared in Phosphate Buffer Saline (PBS, pH 7.4) so as to have final concentration of BSA and ribose at 10 mg/ml and 500 mM respectively. Addition of compound was done in aseptic conditions. Sodium azide (0.02%) was also added in this solution in order to prevent microbial growth. A separate tube containing BSA, ribose and sodium azide in the same concentration and buffer as above, but without any test compound, was also incubated as positive control. After incubation at 37° C. for 7 days, 40 micro liter sample from each tube was removed and diluted with PBS to have final concentration of BSA at 1 mg/ml. The fluorescence of all the samples was measured at Excitation Maximum of […] and the Emission Maximum of […] using f-MAX Fluorimeter (Molecular Device, USA). In order to study the effect of test compound on fluorescence, freshly prepared compound solution was mixed with previously incubated positive control (i.e. BSA+ribose), so as to achieve same concentration of all the components as that of test samples.
The percent inhibition of test compound was measured as follows:
[formula] Where F3=Fluorescence of BSA+ribose+compound, F4 is fluorescence of incubated (BSA+ribose)+freshly added test compound.

The test system of test [4] is AGE derived protein cross links. The following applies: Vasan et al. Nature 1996; U.S. Pat. No. 5,853,703; cited from earlier work.

T1 sequence (P02769 25-607): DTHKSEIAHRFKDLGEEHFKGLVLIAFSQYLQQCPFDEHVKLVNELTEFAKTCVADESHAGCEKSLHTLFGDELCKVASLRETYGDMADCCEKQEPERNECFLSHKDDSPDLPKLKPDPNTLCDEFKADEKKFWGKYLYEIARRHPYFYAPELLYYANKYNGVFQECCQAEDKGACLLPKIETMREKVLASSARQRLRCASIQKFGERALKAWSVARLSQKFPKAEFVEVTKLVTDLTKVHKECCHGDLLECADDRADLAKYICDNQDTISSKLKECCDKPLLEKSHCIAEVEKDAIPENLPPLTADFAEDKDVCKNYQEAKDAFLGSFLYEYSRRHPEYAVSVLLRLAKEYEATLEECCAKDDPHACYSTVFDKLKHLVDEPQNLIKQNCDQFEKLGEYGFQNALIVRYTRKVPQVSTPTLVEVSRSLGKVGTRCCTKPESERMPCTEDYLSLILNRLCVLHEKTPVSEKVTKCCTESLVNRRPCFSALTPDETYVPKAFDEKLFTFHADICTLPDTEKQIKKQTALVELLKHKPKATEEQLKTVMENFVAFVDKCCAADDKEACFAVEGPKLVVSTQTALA

Regarding `Cc1sc[n+](CC(=O)c2ccccc2)c1C.[Cl-]` [ALT-711], in test [1], the “arterial stiffness and arterial compliance” value was “reverse diabetes induced increase of arterial stiffness and improve arterial compliance”.
`Cc1cc(C)n(Cc2cc(-c3ccc[n+](CC(=O)c4ccc(C)s4)c3)[nH]n2)n1.[Cl-]` [Compound 18, 1-(2-(5-Methyl-2-thienyl)-2-oxoethyl)-3-[(3,-(3,5-dimethylpyrazol-1-yl)methyl)pyrazol-5-yl]pyridinium chloride]: the “Relative Free Radical Scavenging Activity (%) on ABTS” value in test [2] (12.5 μM) stood at 28.65%; in test [2] (25.0 μM) it was 53.8%; in test [2] (50.0 μM) it was 84.41%; in test [2] (100.0 μM), 95.32%. The “% Breakage” value at AGE-BSA (5 mM compound) turned out to be 52.97%. In test [3] (5 mM compound), the “% Inhibition (Day 7)” value amounted to 79%.
For the compound `O=C(C[n+]1cccc(-c2cc(Cc3ccccc3)nn2-c2ccccc2)c1)c1ccccc1.[Cl-]` [Compound 19, 1-(2-Phenyl-2-oxoethyl)-3-[(1-phenyl-3-phenylmethyl)pyrazol-5-yl]pyridinium chloride], the “Relative Free Radical Scavenging Activity (%) on ABTS” value was determined as 8.37% in test [2] (12.5 μM), 19.42% in test [2] (25.0 μM), 37.62% in test [2] (50.0 μM) and 55.18% in test [2] (100.0 μM). Also, the “% Breakage” value on AGE-BSA (10 mM compound) was 91.22%. Also, the “% Inhibition (Day 7)” value in test [3] (5 mM compound) is listed as 64.23%.
For `O=C(C[n+]1cccc(-c2cc(CCC3CCCCC3)n[nH]2)c1)c1ccccc1.[Cl-]` [Compound 22], the “Relative Free Radical Scavenging Activity (%) on ABTS” value was determined as 22.52% in test [2] (12.5 μM), 29.52% in test [2] (25.0 μM), 30.31% in test [2] (50.0 μM) and 31.40% in test [2] (100.0 μM). Further, the “% Breakage” value on AGE-BSA (10 mM compound) turned out to be 100.00%. Further, in test [3] (2.5 mM compound), the “% Inhibition (Day 7)” value stood at 51%.
Turning to `O=C(C[n+]1cccc(-c2cc(COc3ccccc3)n[nH]2)c1)c1cccs1.[Cl-]` [Compound 24, 1-(2-Thien-2′-yl-2-oxoethyl)-3-[(3-phenoxymethyl)pyrazol-5-yl]pyridinium chloride], the “Relative Free Radical Scavenging Activity (%) on ABTS” value in test [2] (12.5 μM) is given as 43.66%; in test [2] (25.0 μM) it was 74.64%; in test [2] (50.0 μM) it was 83.24%; in test [2] (100.0 μM), 90.12%. Further, the “% Breakage” value at AGE-BSA (10 mM compound) is 97.72%. Also, in test [3] (5 mM compound), the “% Inhibition (Day 7)” value worked out at 82.5%.
On to `Cc1cc(C)n(Cc2cc(-c3ccc[n+](CC(=O)c4ccccc4)c3)n(-c3ccccc3)n2)n1.[Br-]` [Compound 26], for which the “Relative Free Radical Scavenging Activity (%) on ABTS” value in test [2] (12.5 μM) came to 21.18%; in test [2] (25.0 μM), 34.22%; in test [2] (50.0 μM), 41.66%; in test [2] (100.0 μM) it was 75.27%. Moreover, the “% Breakage” value at AGE-BSA (10 mM compound) is 42.37%. For the same compound, in test [3] (5 mM compound), the “% Inhibition (Day 7)” value worked out at 61.45%.
For `O=C(C[n+]1cccc(-c2cc(COc3ccccc3)nn2-c2ccccc2)c1)c1ccccc1.[Cl-]` [Compound 34, 1-(2-Phenyl-2-oxoethyl)-3-[(1-phenyl-3-phenoxymethyl)pyrazol-5-yl]pyridinium chloride], the “Relative Free Radical Scavenging Activity (%) on ABTS” value in test [2] (12.5 μM) was 13.2%; in test [2] (25.0 μM), 19.08%; in test [2] (50.0 μM), 26.39%; in test [2] (100.0 μM) it was 29.40%. The “% Breakage” value at AGE-BSA (10 mM compound) was determined as 100.0%. In test [3] (5 mM compound), the “% Inhibition (Day 7)” value worked out at 60%.
For the compound `O=C(C[n+]1ccsc1)c1ccccc1.[Br-]` [N-phenacyl thiazolium bromide], the “cleavage of AGE derived protein cross links” value in test [4] is on record as “cleaves covalent, AGE derived protein cross links”.

The values above are taken from patent publication US7223777B2, “Compounds for the management of aging-related and diabetic vascular complications, process for their preparation, therapeutic and cosmetic uses thereof” (Torrent Pharmaceuticals Ltd., priority 2001, dated 2007).
